Data set [1] in a line: Phage binding assay on immobilized GD2. On the set-up: species or system human. The note with it: 10 μg GD2 per well, 1 × 10^11 pfu phage, DPBS/Tween20 (0.3%), 1 h room temperature, Fig 1A-C. As for the experimental part: 96-well microtiter plates (Greiner, Frickenhausen, Germany) were coated with 10 μg GD2 or 10 μg GD1b per well for one hour at room temperature. Wells were then washed 3 times with DPBS/Tween20 (0.05%), blocked with BSA (1%)/DPBS/Tween20 (0.05%) for 1 hour at room temperature, washed again and subsequently filled with H2O. Plates were stored at 8°C until use. For in vitro selection, 2 x 10^11 plaque forming units (pfu) of the unselected M13 Ph.D.-7 phage display peptide library or the phage pool of the subsequent selection rounds was incubated with DPBS/Tween20 (0.1%, 0.2%, 0,3% or 0,4%) in a GD1b coated well for 1 hour at room temperature on a shaker. The phage solution was then transferred to a well containing GD2 and incubated for 1 hour at room temperature. After washing 10 times with DPBS/Tween20 (0.1%, 0.2%, 0,3% or 0,4%), bound phages were eluted by addition of E. coli ER2738 (OD600nm 0.4–0.5) for 30 minutes at 37°C. Phage amplification in 20 ml suspension containing E. coli ER2738 (hereafter referred to as phage pool) and titer determination were performed according to the manufacturer’s instructions with the modification that X-Gal was replaced by S-Gal and ferric ammonium citrate (both obtained from Sigma, Taufkirchen, Germany). For in vivo selection, 2 x 10^11 pfu of the phage pool of the 3rd selection round were injected into the tail vein of a mouse with a xenograft tumour induced by inoculation of IMR32 cells (2 x 10^7). Anaesthetised mice were perfused with DPBS 10 min after phage application. Tumours were explanted, homogenized in LB-medium and the phages were eluted with 900 μl of an E. coli ER2738 suspension at 37°C for 30 minutes in an incubator. Of this suspension, 10 μl were used for the determination of the phage titer. The residual volume was used for phage amplification in 20 ml E. coli ER2738 suspension according to the manufacturer’s instructions. Wells were coated with GD3, GD2, GD1b, GT1b or BSA (10 μg/ well each). For competition experiments, coated wells were pre-incubated with serial dilutions ranging from 10 μg to 100 pg of an 11-mer GD2-specific-peptide in DPBS for one hour at room temperature on a shaker and the supernatant was removed. In total, 1 × 10^11 pfu of the amplified phages were incubated with DPBS/Tween20 (0.3%) for one hour at room temperature on a shaker. After washing with 10 volumes of DPBS/Tween20 (0.3%), bound phages were eluted by adding E. coli ER2738 and phage titer determination was performed as described above. Additionally, an in vivo competition assay was performed in tumour-bearing mice. Therefore, 200 μg of the GD2-specific peptide and 1×10^11 pfu of the phage encoding the same peptide were co-injected intravenously in three IMR32 tumour bearing mice per experiment. Tumours were subsequently harvested and the phage titers were determined as described above.

Data set [2] is described as follows: Phage binding assay on immobilized GD3. More on the design: species or system human. The note with it: 10 μg GD3 per well; 1 × 10^11 pfu phage, 1 h room temperature; Fig 1B. The protocol: (§1) Wells were coated with GD3, GD2, GD1b, GT1b or BSA (10 μg/ well each). For competition experiments, coated wells were pre-incubated with serial dilutions ranging from 10 μg to 100 pg of an 11-mer GD2-specific-peptide in DPBS for one hour at room temperature on a shaker and the supernatant was removed. In total, 1 × 10^11 pfu of the amplified phages were incubated with DPBS/Tween20 (0.3%) for one hour at room temperature on a shaker. After washing with 10 volumes of DPBS/Tween20 (0.3%), bound phages were eluted by adding E. coli ER2738 and phage titer determination was performed as described above. Additionally, an in vivo competition assay was performed in tumour-bearing mice. Therefore, 200 μg of the GD2-specific peptide and 1×10^11 pfu of the phage encoding the same peptide were co-injected intravenously in three IMR32 tumour bearing mice per experiment. Tumours were subsequently harvested and the phage titers were determined as described above.

Data set [3] is described as follows: Phage binding assay on immobilized GD1b. On the set-up: species or system human. The note with it: 10 μg GD1b per well, 1 × 10^11 pfu phage, 1 h room temperature, Fig 1A, 1B. The protocol: 96-well microtiter plates (Greiner, Frickenhausen, Germany) were coated with 10 μg GD2 or 10 μg GD1b per well for one hour at room temperature. Wells were then washed 3 times with DPBS/Tween20 (0.05%), blocked with BSA (1%)/DPBS/Tween20 (0.05%) for 1 hour at room temperature, washed again and subsequently filled with H2O. Plates were stored at 8°C until use. For in vitro selection, 2 x 10^11 plaque forming units (pfu) of the unselected M13 Ph.D.-7 phage display peptide library or the phage pool of the subsequent selection rounds was incubated with DPBS/Tween20 (0.1%, 0.2%, 0,3% or 0,4%) in a GD1b coated well for 1 hour at room temperature on a shaker. The phage solution was then transferred to a well containing GD2 and incubated for 1 hour at room temperature. After washing 10 times with DPBS/Tween20 (0.1%, 0.2%, 0,3% or 0,4%), bound phages were eluted by addition of E. coli ER2738 (OD600nm 0.4–0.5) for 30 minutes at 37°C. […]
Wells were coated with GD3, GD2, GD1b, GT1b or BSA (10 μg/ well each). […] Tumours were subsequently harvested and the phage titers were determined as described above.

The nature of data set [4]: Phage binding assay on immobilized GT1b. The note with it: 10 μg GT1b per well; 1 × 10^11 pfu phage, 1 h room temperature; Fig 1B. On the set-up: species or system human. As for the experimental part:
as §1

Data set [5] is described as follows: In vitro competition of WHWRLPS-phage binding to GD2 by soluble peptide. On the set-up: species or system human. The note with it: Fig 2B. As for the experimental part:
as §1

In data set [6] the test system is IMR32 neuroblastoma cells. In words: Cell proliferation / viability assay (MTT). It counts as cell-based, human. The note with it: 1 μg or 10 μg/ml peptide, maximum reduction after 96 h and 10 μg/ml vs. unrelated control peptide, quintuplicate, Fig 2A. As for the experimental part: Proliferation of the human neuroblastoma cell line IMR32 upon peptide addition was evaluated using MTT assays as described. Peptides were used at a concentration of 1 μg and 10 μg per well in a total volume of 200 μl per well. For each time point and each peptide concentration, experiments and controls were performed in quintuplicate.

In data set [7] the test system is IMR32-induced xenografts. As to the kind of experiment: In vivo competition of phage tumour homing by co-injected peptide. On the set-up: species or system NMRI nude mice. The note with it: i.v. coinjection of 200 μg peptide and 1×10^11 pfu WHWRLPS-phage, 10 min; compared to injection of phage only; Fig 2D. The protocol:
as §1

The test system of data set [8] is IMR32-induced xenografts. The note with it: 1×10^11 pfu i.v., 10 min circulation; for phage recovery from tumour tissue: perfusion with DPBS, WHWRLPS-phage vs. control phage. The protocol: Human IMR32 tumour cells were injected subcutaneously (s.c.) in the right and left femoral region of anesthetized NMRI nude mice (1×10^7 IMR32 cells in 50 μl DPBS and 150 μl Matrigel (BD)). For PET imaging, IMR32 cells were injected s.c. in the neck fold. Imaging and all other interventions were conducted on day 14 day after tumour cell inoculation.
Of the GD2-specific phage or a control phage (GHGRLPS), 1×10^11 pfu were injected intravenously in three IMR32 tumour bearing mice per phage after an i.p. application of the anaesthetics xylazine (16 mg/kg) and ketamine (100 mg/kg). After 10 minutes, the mice were perfused with DPBS and brain, muscle, stomach, kidneys, heart, lung, spleen, liver and tumour were explanted and weighed. Tissues were homogenized in LB-medium using an Ultra-Turrax T25 homogenizer (IKA Labortechnik, Staufen, Germany). Phages were eluted by the addition of E.coli ER2738 bacteria and the phage titers were determined as described above.

The test system of data set [9] is IMR32-induced xenografts. As to the kind of experiment: Distribution of 111In- and 68Ga-labelled DOTA peptides in vivo (gamma counter). More on the design: species or system NMRI nude mice. As for the experimental part: ^111In was solved in HCl and a pH 3 was adjusted. DOTA peptides (100 μg) were diluted in the same volume of sodium acetate buffer (pH 5.0). Next, a 1:1 mixture (v/v) of the ^111In /HCl solution and the peptide solution was heated to 80°C for 10 minutes before applying it to a C18 reverse-phase cartridge (Strata™-X 33 μm Polymeric Reversed Phase, Phenomenex, Aschaffenburg, Germany). After washing twice with 5 ml water, elution of the ^111In–labelled peptide was achieved using ethanol abs. and volume was adjusted to 100 μl using isotonic NaCl solution.
^111In—labelled DOTA peptides (200–700 kBq) or ^68Ga—labelled DOTA peptides (80–400 kBq) were injected intravenously into mice bearing IMR32-induced (2 x 10^7 cells s.c.) xenografts. Organs and blood of mice were collected between 5 min and 24 h after injection and their radioactive content was quantified using a gamma counter (Automatic Gamma Counter 1480 Wizard TM 3”). The injected dose was calculated by weighing the syringe with and without the tracer. Activity concentrations were corrected for radioactive decay. To evaluate the effects of kidney protection, a mixture containing Gelofusine (80μg/ g bodyweight)/lysine (400μg/ g weight)/arginine (400μg/ g weight) was injected i.v. 5 minutes before application of the tracer. Here, organs and blood were collected 1 h after injection. To compare ^68Ga -labelled peptides with the clinically established tracer, one group of tumour bearing mice received ^124I -MIBG (100–200 kBq) by intravenous injection.

The mark [10] stands for this setting: one hour after tracer injection, Fig 3C.

For WHGRLPS, the “binding of phage to immobilized GD2 (phage output titer)” value (“binding of phage to immobilized GD2” below) in data set [1] is “impaired binding”.

Take GHGRLGS: the “binding of phage to immobilized GD2” value in data set [1] was “impaired binding”.

For HAIYPRH [phage 2, reference compound], the “binding of phage to immobilized GD3” value in data set [2] is listed as “did not bind”. Besides, in data set [1], the “binding of phage to immobilized GD2” value was “did not bind”. The “binding of phage to immobilized GD1b” value in data set [3] is given as “did not bind”. The “binding of phage to immobilized GT1b” value in [4] is recorded as “did not bind”.

Turning to WHWRLPS [WHWRLPS-peptide], the “maximum reduction of WHWRLPS-phage binding to GD2” value in data set [5] (in the presence of 10 μg peptide, wells pre-incubated with peptide 1 h) came out at 82%. For the same compound, in [5] (lowest dilution of the series 10 μg to 100 pg, p < 0.05 vs. 0 μg peptide), the “peptide concentration sufficient to significantly reduce phage binding to GD2” value amounted to 100 pg/mL. Moreover, the “effect on IMR32 cell viability” value in data set [6] is listed as “reduce cell viability”. In the data set with IMR32-induced xenografts [7], the “reduction of WHWRLPS-phage recovery from tumour tissue” value stood at 84%.

On to WHWRLPS [WHWRLPS-phage], for which the “binding of phage to immobilized GD2” value in data set [1] is listed as “specifically bound”; in [1] (listed as phage 7), “high affinity”. For the same compound, the “binding of phage to immobilized GD1b” value in data set [3] (listed as phage 7) is on record as “lower affinity”. In the data set on IMR32-induced xenografts [8] (Fig 2C), the “phage recovery from tumour tissue” value is recorded as “Significantly higher amounts”. Besides, the “organs with phage accumulation” value with IMR32-induced xenografts [8] (attributed to mononuclear phagocytic system) is “liver, the spleen and, to a lesser extent, in the lung”. For the same compound, the “phage recovery from other organs” value with IMR32-induced xenografts [8] (compared with control phage (GHGRLPS), Fig 2C) is “lower than that of the control”.

As to WHWRLGS, in data set [1], the “binding of phage to immobilized GD2” value is “impaired binding”.

On to “WHWRLPS-DOTA [68Ga-labelled WHWRLPS peptide, WHWRLPS-DOTA peptide labelled with 68Ga]”, for which, in the data set with IMR32-induced xenografts [9] (mouse, in vivo), the “accumulation in tumour tissue, 124I-MIBG vs. 68Ga-labelled peptide” value is “comparable for both tracers” and the “tissue with highest accumulation” value is “kidney”. For the same compound, in the data set with IMR32-induced xenografts [9] (mouse, in vivo, iv), the “radioactive load in the kidneys with kidney protection” value is “reduced”; the “radioactivity in the blood with kidney protection” value is given as “higher accumulation”; the “tumour-specific uptake, 68Ga- vs. 111In-labelled peptide” value is recorded as “higher tumour-specific uptake”; the “uptake across tissues in comparison to 111In-labelled peptides” value is reported as “higher uptake across all tissues”.

With GHWRLPS, in data set [1], the “binding of phage to immobilized GD2” value is “impaired binding”.

Take GHGRLPS: the “binding of phage to immobilized GD2” value in data set [1] is on record as “impaired binding”. The “phage recovery from tumour tissue” value in the data set on IMR32-induced xenografts [8] (Fig 2C) was “did not accumulate in tumour tissue”.

For `N=C(N)NCc1cccc([131I])c1` [124I-MIBG, metaiodobenzylguanidine, reference compound], in the data set with IMR32-induced xenografts [9] (setting [10]), the “accumulation in tumour tissue, 124I-MIBG vs. 68Ga-labelled peptide” value is recorded as “comparable for both tracers” and the “activity concentration in blood, 124I-MIBG vs. 68Ga-labelled peptide” value is recorded as “higher”. In addition, in the data set with IMR32-induced xenografts [9] (one hour after tracer injection, thyroid not blocked, Fig 3C), the “tissue with highest accumulation” value is on record as “thyroid”.

(Values after paper PMC5055303, “Identification and Tumour-Binding Properties of a Peptide with High Affinity to the Disialoganglioside GD2” (PLoS ONE, 2016).)
